Series [1] concerns ΔmvfR mutant constitutively expressing the pqsABCD genes. Briefly: HAQ production in ΔmvfR mutant constitutively expressing pqsABCD (LC/MS). It is filed as cell-based, Pseudomonas aeruginosa. The following applies: 100 μM inhibitor. An excerpt:
However, since these compounds diminish or abolish P. aeruginosa HAQ production, it is possible that they target either the MvfR protein itself or enzymes in the pqs operon that are required for HAQ synthesis. To further understand the target(s) of these compounds, a ΔmvfR mutant constitutively expressing the pqsABCD genes was used. This strain is capable of synthesizing HHQ, HQNO, PQS and DHQ independently of MvfR. […] Since PqsA and PqsD are necessary and sufficient for DHQ production, it is possible that these inhibitors target either PqsB or PqsC enzymes, which are required for HHQ and PQS production.

The test system of series [2] is 4-hydroxy-2-alkylquinoline (HAQ) levels, P. aeruginosa PA14 (MvfR regulon). It is filed as cell-based, Pseudomonas aeruginosa. To be noted: for activity (impacts on HAQ and pyocyanin levels), structure-activity comparison / HAQ production / HAQ inhibition: tested at 10 μM; for concentration at which compound was effective (decreased HAQ levels), as low as: among the seventeen HAQ-lowering hits.

Series [3] has as its system pyocyanin, an MvfR-regulated virulence factor, P. aeruginosa PA14. Briefly: Quantification of pyocyanin (OD520nm of chloroform-extracted cultures). It is filed as cell-based, Pseudomonas aeruginosa. To be noted: for pyocyanin levels: twelve of the 17 HAQ-lowering hits, vs control. As for the experimental part: Pyocyanin levels were determined by measuring OD520nm of chloroform-extracted cultures.
Compounds were tested at various concentrations for their impact on 4-hydroxy-2-alkylquinoline (HAQ) levels, including the MvfR ligands 4-hydroxy-2-heptylquinoline (HHQ) and 3,4-dihydroxy-2-heptylquinoline (PQS), as well as 2-n-heptyl-4-hydroxyquinoline-N-oxide (HQNO) and 2,4-dihydroxyquinoline (DHQ) (FIGS. 2A-2C). Levels of the phenazine, pyocyanin, an MvfR-regulated virulence factor, were also determined.

Series [4] concerns Raw264.7 macrophage cells infected with PA14. Briefly: Viability of PA14-infected macrophage cells (MTT assay). It is filed as cell-based. To be noted: PA14 MOI 100, 3 h, 100 μM compound. How it is done:
Raw264.7 macrophage cells were cultured in Dulbecco's modified eagles medium (DMEM) containing 10% FCS, 2 mM glutamine and antibiotic-antimycotic solutions. Before infections cells were washed with PBS (without Mg2+ and Ca2+) and antibiotic-free medium was used for infections. The cells were infected with PA14 and PA14 isolates grown in the presence of compounds at an MOI of 100 for 3 h at 37° C. in a 5% CO2 atmosphere. During infections cells were incubated with 100 μM of compounds as well. After 3 hours of PA14 infection, the cells were washed and incubated with DMEM medium containing polymixin B and gentamicin in order to kill the extracellular bacteria. The viability of Raw264.7 was assessed using the MTT assay, which detects the early sign of eukaryotic cell death. The formazan crystals formed in viable, metabolically active cells were dissolved by the addition of 100 μl DMSO and optical density was measured at 570 nm in a microplate reader.
In order to determine whether or not the potent inhibitors are cytotoxic in eukaryotes, Raw 264.7 macrophage cells were exposed to selected compounds. No significant cytotoxicity was observed following compound exposure for 3 hours compared to the DMSO solvent control (FIG. 6A). The cytotoxicity of the macrophage cells was also determined when infected with PA14 bacterial cells alone or in the presence of the compounds.

The mark [5] stands for this setting: very low concentrations, nanomolar range.

Consider 21 molecules from patent US8877940B2, “Antibiotic tolerance inhibitors” (Institut National de la Recherche Scientifique, priority 2011, dated 2014).

Each structure is given as a SMILES string.

Regarding `N#Cc1ccc(NC(=O)CSc2nc3ccccc3[nH]2)cc1` [Compound B1, 2-((1H-benzo[d]imidazol-2-yl)thio)-N-(4-cyanophenyl)acetamide], the “HAQ levels compared to the solvent control” value in series [1] is reported as “intermediate phenotype”. Besides, the “activity (impacts on HAQ and pyocyanin levels), structure-activity comparison” value (shortened to “activity”) in series [2] was “active compounds”. Moreover, the pyocyanin levels result in series [3] is on record as “less than half of the control”.
In the case of `O=C(CSc1nc2ccc([N+](=O)[O-])cc2[nH]1)Nc1ccc(I)cc1` [Compound M59, N-(4-iodophenyl)-2-((6-nitro-1H-benzo[d]imidazol-2-yl)thio)acetamide], the “HAQ levels compared to the solvent control” value in series [1] is “intermediate phenotype”. Also, in series [2], the “activity” value was “most active”. In series [2] (setting [5]), the “reduction / inhibition of HAQs” value is given as “considerably inhibited”. In series [3] (setting [5]), the “reduction / inhibition of pyocyanin” value is on record as “considerably inhibited”.
`COc1ccccc1NC(=O)CSc1nc2ccccc2[nH]1` [Compound M46, 2-((1H-benzo[d]imidazol-2-yl)thio)-N-(2-methoxyphenyl)acetamide]: the “activity” value in series [2] is on record as “did not improve the activity”.
As for `CSc1cccc(NC(=O)CSc2nc3ccccc3[nH]2)c1` [Compound M4, 2-((1H-benzo[d]imidazol-2-yl)thio)-N-(3-(methylthio)phenyl)acetamide], in series [1], the DHQ level result is recorded as “increased”; the “HHQ and HQNO levels” value was “reduced”. For the same molecule, in series [2], the “concentration at which compound was effective (decreased HAQ levels), as low as” value is 10 µM and the “HAQ production / HAQ inhibition” value is reported as “improved HAQ inhibition”.
Take `N#Cc1ccc(NC(=O)CSc2nc3ccc([N+](=O)[O-])cc3[nH]2)cc1` [Compound M62, N-(4-cyanophenyl)-2-((6-nitro-1H-benzo[d]imidazol-2-yl)thio)acetamide]: the “HAQ levels compared to the solvent control” value in series [1] is given as “do not significantly alter HAQ levels”. Moreover, in series [4], the “reduction of PA14-induced cytotoxicity” value is “effectively reduced cytotoxicity”. The “activity” value in series [2] is given as “most active”.
Take `O=C(CSc1nc2ccccc2[nH]1)Nc1ccc([N+](=O)[O-])cc1` [Compound M45, 2-((1H-benzo[d]imidazol-2-yl)thio)-N-(4-nitrophenyl)acetamide]: in series [2], the “activity” value is “did not improve the activity”.
As to `COc1ccc(NC(=O)CSc2nc3ccc([N+](=O)[O-])cc3[nH]2)cc1` [Compound M61, N-(4-methoxyphenyl)-2-((6-nitro-1H-benzo[d]imidazol-2-yl)thio)acetamide], in series [1], the “HAQ levels compared to the solvent control” value is “do not significantly alter HAQ levels”. For the same molecule, the “activity” value in series [2] is listed as “most active”.
On to `O=C(CSc1nc2ccccc2[nH]1)Nc1ccccc1` [Compound M56, 2-((1H-benzo[d]imidazol-2-yl)thio)-N-phenylacetamide], for which the “HAQ production / HAQ inhibition” value in series [2] is “little impact”. For the same molecule, in series [3] (tested at 10 μM), the pyocyanin production result is given as “little impact”.
For the molecule `O=C(CSc1nc2ccc([N+](=O)[O-])cc2[nH]1)Nc1ccc(OC(F)(F)F)cc1` [Compound M58, 2-((6-nitro-1H-benzo[d]imidazol-2-yl)thio)-N-(4-(trifluoromethoxy)phenyl)acetamide], the “HAQ levels compared to the solvent control” value in series [1] is listed as “intermediate phenotype”. Further, the “activity” value in series [2] was “most active”.
Consider `O=C(CSc1nc2ccccc2[nH]1)Nc1ccc(Cl)cc1` [Compound M26, 2-((1H-benzo[d]imidazol-2-yl)thio)-N-(4-chlorophenyl)acetamide], for which, in series [1], the DHQ level result was “increased”; the “HHQ and HQNO levels” value is listed as “reduced”. In series [2], the “concentration at which compound was effective (decreased HAQ levels), as low as” value amounted to 10 µM; the “activity” value is “active compounds”. Besides, the pyocyanin levels entry in series [3] is on record as “less than half of the control”.
`O=C(CSc1nc2ccc(NC(=O)C(F)(F)F)cc2[nH]1)Nc1ccc(I)cc1` [Compound M63, 2,2,2-trifluoro-N-(2-((2-((4-iodophenyl)amino)-2-oxoethyl)thio)-1H-benzo[d]imidazol-6-yl)acetamide]: the “activity” value in series [2] was “inactive”.
`O=C(CSc1nc2ccccc2[nH]1)Nc1ccc(Cl)c(Cl)c1` [Compound M22, 2-((1H-benzo[d]imidazol-2-yl)thio)-N-(3,4-dichlorophenyl)acetamide]: the “activity” value in series [2] was “decreased the activity as compared to M26”.
Turning to `CCc1ccc(NC(=O)CSc2nc3ccc(C)cc3[nH]2)cc1` [Compound M23, N-(4-ethylphenyl)-2-((6-methyl-1H-benzo[d]imidazol-2-yl)thio)acetamide], in series [1], the DHQ level entry is reported as “increased”; the “HHQ and HQNO levels” value is “reduced”. For the same molecule, the “activity” value in series [2] is “moderately active”. Also, the pyocyanin levels entry in series [3] is recorded as “less than half of the control”.
Take `COc1ccccc1NC(=O)CSc1nc2ccc([N+](=O)[O-])cc2[nH]1` [Compound M53, N-(2-methoxyphenyl)-2-((6-nitro-1H-benzo[d]imidazol-2-yl)thio)acetamide]: in series [1], the “HAQ levels compared to the solvent control” value is recorded as “do not significantly alter HAQ levels”. Besides, in series [2], the “activity” value is listed as “not very active”.
Take `Cc1ccc2nc(SCC(=O)Nc3ccc(Br)cc3)[nH]c2c1` [Compound M27, N-(4-bromophenyl)-2-((6-methyl-1H-benzo[d]imidazol-2-yl)thio)acetamide]: in series [1], the DHQ level entry is “increased”; the “HHQ and HQNO levels” value was “reduced”. Also, the “reduction of PA14-induced cytotoxicity” value in series [4] is recorded as “effectively reduced cytotoxicity”. In series [2], the “concentration at which compound was effective (decreased HAQ levels), as low as” value was 10 µM; the “activity” value is reported as “more active than M55”. Moreover, in series [3], the pyocyanin levels result was “less than half of the control”.
For the molecule `CC(C)c1ccc(NC(=O)CSc2nc3ccccc3[nH]2)cc1` [Compound M49, 2-((1H-benzo[d]imidazol-2-yl)thio)-N-(4-isopropylphenyl)acetamide], the “activity” value in series [2] is given as “more active compound”.
On to `O=C(CSc1nc2ccccc2[nH]1)Nc1ccc(Br)cc1` [Compound M55, 2-((1H-benzo[d]imidazol-2-yl)thio)-N-(4-bromophenyl)acetamide], for which, in series [1], the DHQ level result is reported as “increased”; the “HHQ and HQNO levels” value is “reduced”. In addition, the “activity” value in series [2] is “active compounds”.
Turning to `COc1ccc2nc(SCC(=O)Nc3ccc(Cl)c(Cl)c3)[nH]c2c1` [Compound M24, N-(3,4-dichlorophenyl)-2-((6-methoxy-1H-benzo[d]imidazol-2-yl)thio)acetamide], the “activity” value in series [2] was “decreased the activity”.
As for `COc1ccc(NC(=O)CSc2nc3ccc([N+](=O)[O-])cc3[nH]2)c(OC)c1` [Compound M34, N-(2,4-dimethoxyphenyl)-2-((6-nitro-1H-benzo[d]imidazol-2-yl)thio)acetamide], in series [1], the “HAQ levels compared to the solvent control” value is on record as “do not significantly alter HAQ levels”. Further, in series [2], the “concentration at which compound was effective (decreased HAQ levels), as low as” value was 10 µM; the “activity” value is “quite active”. The pyocyanin levels result in series [3] is “less than half of the control”.
In the case of `O=C(CSc1nc2ccc([N+](=O)[O-])cc2[nH]1)Nc1ccc(Cl)cc1` [Compound M51, N-(4-chlorophenyl)-2-((6-nitro-1H-benzo[d]imidazol-2-yl)thio)acetamide], the “HAQ levels compared to the solvent control” value in series [1] is reported as “intermediate phenotype”. Besides, the “activity” value in series [2] is “most active”.
Turning to `CC(=O)Nc1ccc2nc(SCC(=O)Nc3ccc(I)cc3)[nH]c2c1` [Compound M65, 2-((6-acetamido-1H-benzo[d]imidazol-2-yl)thio)-N-(4-iodophenyl)acetamide], in series [2], the “activity” value was “inactive”.
